Our source for the IC50 values is US20040006236A1, “Diaminopropionic acid derivatives” (priority 1999, published 2004).

SMILES strings stand for the structures.

The test system of one test is Mac-1 and LFA-1-mediated neutrophil binding to immobilized ICAM-1. Kind of test: Neutrophil (Mac-1 and LFA-1)/ICAM-1 cell-based screening assay. Conditions: human neutrophils. As to the method: Both Mac-1 and LFA-1 are expressed on the cell surface of neutrophils. The ability of antagonists to inhibit Mac-1 and LFA-1-mediated neutrophil binding to immobilized ICAM-1 was quantitated by a cell based assay. Typically, fusion protein consisting of the entire extracellular domain of human ICAM-1 and the Fc domain of human IgG (5dICAM-Ig) was coated onto 96 well microtiter plates (1 μg in 100 μL TBS) overnight at 4° C. The plates were then blocked with 150 μL of 10% PVP in TBS for 1 h at 37° C. Plates were washed 3 times (150 μL each) with TBS. Human neutrophils were purified from whole blood from healthy volunteers using LSM (ICN). Cells (8×10^6/mL) were fluorescently labeled with 6-carboxyfluorescein (100 μg/mL) for 40 min in IMDM/1 mM MgCl2/1.2 mM CaCl2 as described in Example 287. Cells (8×10^6/mL) were stimulated with f-Met-Leu-Phe (10 μM) for 5 min at room temperature just prior to being used in the assay, and diluted to 2×10^6 cells/mL with RPMI/0.05% BSA/0.2 mM MnCl2. Stock solutions (10 mM) of test compounds were diluted to 2.5 mM with DMSO. A series of 1:4 dilutions in DMSO were performed to achieve a concentration range of 38.2 nM-2.5 mM. Each sample was further diluted 50-fold with RPMI/0.05% BSA/0.2 mM MnCl2. Equal volumes of labeled cells were then added to assay tubes containing diluted compound. Final concentrations of compound tested in the assay ranged from 0.38 nM-25 μM with a cell concentration of 1×10^6 per mL. Cells were incubated for 10 min at 37° C. with gentle shaking, then dispensed (100 μL per well) onto ICAM-1 coated plates and incubated for 30 min at 37° C./5% CO2. Unbound cells were washed and plates were read on a Cytofluor™ 2300 (Millipore) as described in Example 384.
`O=C(CC1CCCCC1)NC[C@H](NC(=O)c1ccc(C(=O)NCc2cccc(O)c2)cc1Cl)C(=O)O` [Example 78] returned an IC50 of 253 nM.
Same read-out and setting: the value for `O=C(NCc1cccc(O)c1)c1ccc(C(=O)N[C@@H](CNC(=O)c2ccc3c(c2)S(=O)(=O)c2ccccc2C3=O)C(=O)O)c(Cl)c1` [Example 192] was 634 nM; that for `O=C(NCc1cccc(O)c1)c1ccc(C(=O)N[C@@H](CNC(=O)c2cc(F)cc(F)c2)C(=O)O)c(Cl)c1` [Example 252, N-[2-chloro-4-[[[(3-hydroxyphenyl)methyl]amino]carbonyl]benzoyl]-3-(3,5-difluorobenzoyl)amino-L-alanine] was 34 nM.
Still for that read-out and setting: the result for `O=C(NCc1cccc(O)c1)c1ccc(C(=O)N[C@@H](CNC(=O)c2ccoc2)C(=O)O)c(Cl)c1` [Example 259, N-[2-chloro-4-[[[(3-hydroxyphenyl)methyl]amino]carbonyl]benzoyl]-3-(furan-3-carbonyl)amino-L-alanine] reads 21 nM; that for `O=C(NCc1cccc(O)c1)c1ccc(C(=O)N[C@@H](CNC(=O)c2ccccc2)C(=O)O)c(Cl)c1` [Example 302, 3-benzoylamino-N-[2-chloro-4-[[[(3-hydroxyphenyl)methyl]amino]carbonyl]benzoyl]-L-alanine], 41 nM.

The test system of the next test is cell-surface Mac-1 adhesion to immobilized fibrinogen (HL-60 cells). Kind of test: Mac-1/Fibrinogen cell-based screening assay. Further details: species or system human. Conditions: Homo sapiens, HL-60, HL-60 cells; read-out: Mac-1/Fgn Cell based Assay IC50. How it is done: Cellular Mac-1/Fibrinogen antagonist activity, defined as the ability to inhibit cell-surface Mac-1 adhesion to immobilized fibrinogen, was quantitated by a cell based assay. Human fibrinogen was coated onto 96 well microtiter plates (1 μg in 100 μL TBS) overnight at 4° C. The plates were then blocked with 150 μL of 10% polyvinyl pyrrolidone (PVP) in TBS for 1 h at 37° C. Plates were washed 3 times (150 μL each) with TBS. […] A ten-fold excess of volume of the same buffer was added and cells were centrifuged. The medium was decanted and cells were resuspended at a concentration of 2×10^6 cells/mL in RPMI/0.05% BSA/0.2 mM MnCl2. Stock solutions (10 mM in DMSO) of test compounds were diluted to 2.5 mM with DMSO. […] Each sample was further diluted 50-fold with RPMI/0.05% BSA/0.2 mM MnCl2. Equal volumes of labeled cells were then added to assay tubes containing diluted compounds. […] Cells were incubated for 10 min at 37° C. with gentle shaking, then dispensed (100 μL per well) onto fibrinogen coated plates and incubated for 30 min at 37° C./5% CO2. Unbound cells were gently washed with TBS two times.
As to `O=C(CSc1ccncc1)NC[C@H](NC(=O)c1ccc(C(=O)NCc2cccc(O)c2)cc1Cl)C(=O)O` [Example 90], the IC50 stood at 711 nM.
On the same count and under the same terms, the value for `O=C(NCc1cccc(O)c1)c1ccc(C(=O)N[C@@H](CNC(=O)c2cc3ccccc3s2)C(=O)O)c(Cl)c1` [Example 175] was 345 nM.
The same measure, in the same setting: the value for `O=C(NCc1cccc(O)c1)c1ccc(C(=O)N[C@@H](CNC(=O)c2ccc3ncsc3c2)C(=O)O)c(Cl)c1` [Example 177] was 157 nM.
Still for that read-out and setting: the result for `O=C(NCc1cccc(O)c1)c1ccc(C(=O)N[C@@H](CNC(=O)c2cccc3ccccc23)C(=O)O)c(Cl)c1` [Example 178] reads 125 nM; that for `O=C(NCc1cccc(O)c1)c1ccc(C(=O)N[C@@H](CNC(=O)c2ccc3ccccc3c2)C(=O)O)c(Cl)c1` [Example 179], 314 nM.
In the case of `O=C(NCc1cccc(O)c1)c1ccc(C(=O)N[C@@H](CNC(=O)c2c3c(nc4ccccc24)CCCC3)C(=O)O)c(Cl)c1` [Example 190], the IC50 was found to be 4850 nM.
On the same count and under the same terms, the value for `O=C(NCc1cccc(O)c1)c1ccc(C(=O)N[C@@H](CNC(=O)[C@@H]2CCCN2)C(=O)O)c(Cl)c1` [Example 196] was 63 nM.
In the case of `O=C(NCc1cccc(O)c1)c1ccc(C(=O)N[C@@H](CNC(=O)c2cc(F)cc(F)c2)C(=O)O)c(Cl)c1` [Example 252, N-[2-chloro-4-[[[(3-hydroxyphenyl)methyl]amino]carbonyl]benzoyl]-3-(3,5-difluorobenzoyl)amino-L-alanine], the IC50 turned out to be 19 nM.
On to `O=C(NCc1cccc(O)c1)c1ccc(C(=O)N[C@@H](CNC(=O)c2csnn2)C(=O)O)c(Cl)c1` [Example 254], for which the IC50 is 31 nM.
The same measure, in the same setting: the result for `O=C(NCc1cccc(O)c1)c1ccc(C(=O)N[C@@H](CNC(=O)c2ccno2)C(=O)O)c(Cl)c1` [Example 256] reads 24 nM; that for `COc1cscc1C(=O)NC[C@H](NC(=O)c1ccc(C(=O)NCc2cccc(O)c2)cc1Cl)C(=O)O` [Example 257], 87 nM.
Same read-out and setting: the value for `O=C(NCc1cccc(O)c1)c1ccc(C(=O)N[C@@H](CNC(=O)c2ccoc2)C(=O)O)c(Cl)c1` [Example 259, N-[2-chloro-4-[[[(3-hydroxyphenyl)methyl]amino]carbonyl]benzoyl]-3-(furan-3-carbonyl)amino-L-alanine] was 63 nM; that for `NCCCC(=O)NC[C@H](NC(=O)c1ccc(C(=O)NCc2cccc(O)c2)cc1Cl)C(=O)O` [Example 261, N-[2-chloro-4-[[[(3-hydroxyphenyl)methyl]amino]-carbonyl]benzoyl]-3-(4-aminobutanoylamino)-L-alanine] was 46 nM; that for `O=C(NCc1cccc(O)c1)c1ccc(C(=O)N[C@@H](CNC(=O)C2CCNCC2)C(=O)O)c(Cl)c1` [Example 262] was 49 nM.
The same measure, in the same setting: the result for `O=C(NCc1cccc(O)c1)c1ccc(C(=O)N[C@@H](CNC(=O)c2ccccc2)C(=O)O)c(Cl)c1` [Example 302, 3-benzoylamino-N-[2-chloro-4-[[[(3-hydroxyphenyl)methyl]amino]carbonyl]benzoyl]-L-alanine] reads 74 nM; that for `O=C(NCc1cccc2[nH]ccc12)c1ccc(C(=O)N[C@@H](CNC(=O)c2ccccc2)C(=O)O)c(Cl)c1` [Example 314, 3-(benzoylamino)-N-[2-chloro-4-[[(1H-indol-4-ylmethyl)amino]carbonyl]benzoyl]-L-alanine], 162 nM.
